These results are taken from ChEMBL document CHEMBL1154296, “Potent inhibitors of beta-tryptase and human leukocyte elastase based on the MCoTI-II scaffold” (J Med Chem, 2009).

Starred links: 1 amine or outer side, 2 acyl side, 3 side chain; linkers in the order of their positions; H or OH if unused. Positions of bridges follow the written chain, without caps; N, C: chain ends. Non-standard residues stand in square brackets, D forms with d. Residues, ends and D or L forms follow the SMILES beside them. X2 = N=C(N)NCCC[C@@H](C(=O)[C@H](CCC(N)=O)N[*:1])C(=O)[*:2]; X3 = O=C(NC(=O)[*:2])[C@H](CO)N[*:1]

Assay [1] can be described thus: Inhibition of tryptase by substrate hydrolysis based fluorescence assay.
A further assay addresses T1, Neutrophil elastase (Homo sapiens, UniProt P08246).
T1 sequence (P08246 whole entry): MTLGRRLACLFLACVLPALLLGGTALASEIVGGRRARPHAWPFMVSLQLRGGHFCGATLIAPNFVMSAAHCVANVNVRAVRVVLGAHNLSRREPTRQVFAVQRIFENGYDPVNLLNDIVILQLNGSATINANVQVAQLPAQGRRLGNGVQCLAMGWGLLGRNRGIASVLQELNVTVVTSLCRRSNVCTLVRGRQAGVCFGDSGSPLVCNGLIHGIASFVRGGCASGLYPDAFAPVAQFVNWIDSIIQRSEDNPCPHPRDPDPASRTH
The assay can be described thus: Inhibition of human leukocyte elastase by substrate hydrolysis based fluorescence assay. Conditions: read-out: Ki.

Assay [2] is described as follows: Inhibition of trypsin by substrate hydrolysis based fluorescence assay.

As for `CC[C@H](C)[C@@H]1NC(=O)[C@@H]2CSSC[C@@H]3NC(=O)[C@H](C(C)C)NC(=O)CNC(=O)CNC(=O)[C@H](CC(=O)O)NC(=O)[C@H](CO)NC(=O)CNC(=O)[C@H](CO)NC(=O)CNC(=O)[C@@H]4CSSC[C@H](NC(=O)[C@H](CC(=O)O)NC(=O)[C@H](CO)NC(=O)[C@H](CC(=O)O)NC(=O)[C@H](CCCNC(=N)N)NC(=O)[C@H](CCCNC(=N)N)NC(=O)[C@H](CSSC[C@H](NC1=O)C(=O)N[C@@H](CCCNC(=N)N)C(=O)NCC(=O)N[C@@H](CC(N)=O)C(=O)NCC(=O)N[C@@H](Cc1ccc(O)cc1)C(=O)N4)NC(=O)[C@@H](CCCNC(=N)N)C(=O)[C@H](CCC(N)=O)NC(=O)[C@H](CC(C)C)NC(=O)[C@@H]1CCCN1C(=O)[C@@H](C(C)C)NC(=O)[C@H](C)NC3=O)C(=O)N1CCC[C@H]1C(=O)NCC(=O)N[C@@H](C)C(=O)N2`, the Ki in assay [1] is > 50000 nM; at Neutrophil elastase, 500 nM.
In the case of `CC[C@H](C)[C@@H]1NC(=O)[C@H](CCCCN)NC(=O)[C@@H]2CCCN2C(=O)[C@@H](NC(=O)[C@@H](N)C(C)C)CSSC[C@@H]2NC(=O)CNC(=O)[C@H](C)NC(=O)[C@H](CC(C)C)NC(=O)[C@@H]3CSSC[C@@H](C(=O)NCC(=O)N[C@@H](CO)C(=O)NCC(=O)O)NC(=O)[C@H](Cc4ccc(O)cc4)NC(=O)CNC(=O)[C@H](CC(N)=O)NC(=O)CNC(=O)[C@H](CCCNC(=N)N)NC(=O)[C@H](CSSC[C@H](NC(=O)[C@@H](CCCNC(=N)N)C(=O)[C@H](CCC(N)=O)NC(=O)[C@H](CC(C)C)NC1=O)C(=O)N[C@@H](CCCNC(=N)N)C(=O)N[C@@H](CCCNC(=N)N)C(=O)N[C@@H](CC(=O)O)C(=O)N[C@@H](CO)C(=O)N[C@@H](CC(=O)O)C(=O)N3)NC(=O)[C@H](CC(C)C)NC2=O` (H-VCPKIL[X2]CRRDSDCLAGCLCRGNGYCGSG-OH; disulfide 2-18, 8-20, 14-26), the figures for the Ki in assay [1] and in assay [2] were 110 nM and 99 nM, respectively.
As to `CC[C@H](C)[C@@H]1NC(=O)[C@H](C)NC(=O)[C@@H]2CCCN2C(=O)[C@@H]2CSSC[C@@H]3NC(=O)[C@H](C)NC(=O)CNC(=O)[C@@H]4CCCN4C(=O)[C@@H]4CSSC[C@H](NC(=O)[C@H](Cc5ccc(O)cc5)NC(=O)CNC(=O)[C@H](CC(N)=O)NC(=O)CNC(=O)[C@H](CCCNC(=N)N)NC(=O)[C@H](CSSC[C@H](NC(=O)[C@@H](CCCNC(=N)N)C(=O)[C@H](CCC(N)=O)NC(=O)[C@H](CC(C)C)NC1=O)C(=O)N[C@@H](CCCNC(=N)N)C(=O)N[C@@H](CCCNC(=N)N)C(=O)N[C@@H](CC(=O)O)C(=O)N[C@@H](CO)C(=O)N[C@@H](CC(=O)O)C(=O)N4)NC(=O)[C@H]([C@@H](C)CC)NC3=O)C(=O)NCC(=O)N[C@@H](CO)C(=O)NCC(=O)N[C@@H](CO)C(=O)N[C@@H](CC(=O)O)C(=O)NCC(=O)NCC(=O)N[C@@H](C(C)C)C(=O)N2` (cyclo(ACICRGNGYCGSGSDGGVCPAIL[X2]CRRDSDCPG); disulfide 2-19, 4-25, 10-31), the Ki in assay [1] is > 50000 nM; on Neutrophil elastase, 32 nM; in assay [2], > 0.109 nM.
Consider `CC[C@H](C)[C@@H]1NC(=O)[C@@H]2CSSC[C@@H]3NC(=O)[C@H](C(C)C)NC(=O)CNC(=O)CNC(=O)[C@H](CC(=O)O)NC(=O)[C@H](CO)NC(=O)CNC(=O)[C@H](CO)NC(=O)CNC(=O)[C@@H]4CSSC[C@H](NC(=O)[C@H](CC(=O)O)NC(=O)[C@H](CO)NC(=O)[C@H](CC(=O)O)NC(=O)[C@H](CCCNC(=N)N)NC(=O)[C@H](CCCNC(=N)N)NC(=O)[C@H](CSSC[C@H](NC1=O)C(=O)N[C@@H](CCCNC(=N)N)C(=O)NCC(=O)N[C@@H](CC(N)=O)C(=O)NCC(=O)N[C@@H](Cc1ccc(O)cc1)C(=O)N4)NC(=O)[C@@H](CCCNC(=N)N)C(=O)[C@H](CCC(N)=O)NC(=O)[C@H](CC(C)C)NC(=O)[C@@H]1CCCN1C(=O)[C@H](C(C)C)NC(=O)[C@@H]1CCCN1C3=O)C(=O)N1CCC[C@H]1C(=O)NCC(=O)N[C@@H](C)C(=O)N2` (cyclo(ACICRGNGYCGSGSDGGVCPVPL[X2]CRRDSDCPG); disulfide 2-19, 4-25, 10-31), for which the inhibition constant Ki in assay [1] was > 50000 nM; on Neutrophil elastase, 520 nM.
In the case of `CC[C@H](C)[C@@H]1NC(=O)[C@@H]2CSSC[C@@H]3NC(=O)[C@H](C(C)C)NC(=O)CNC(=O)NC(=O)[C@H](CO)NC(=O)CNC(=O)[C@H](CO)NC(=O)CNC(=O)[C@@H]4CSSC[C@H](NC(=O)[C@H](CC(=O)O)NC(=O)[C@H](CO)NC(=O)[C@H](CC(=O)O)NC(=O)[C@H](CCCNC(=N)N)NC(=O)[C@H](CCCNC(=N)N)NC(=O)[C@H](CSSC[C@H](NC1=O)C(=O)N[C@@H](CCCNC(=N)N)C(=O)NCC(=O)N[C@@H](CC(N)=O)C(=O)NCC(=O)N[C@@H](Cc1ccc(O)cc1)C(=O)N4)NC(=O)[C@@H](CCCNC(=N)N)C(=O)[C@H](CCC(N)=O)NC(=O)[C@H](CC(C)C)NC(=O)[C@H]([C@@H](C)CC)NC(=O)[C@H](CCCCN)NC(=O)[C@@H]1CCCN1C3=O)C(=O)N1CCC[C@H]1C(=O)NCC(=O)N[C@@H](C)C(=O)N2` (cyclo(ACICRGNGYCGSG[X3]GVCPKIL[X2]CRRDSDCPG); disulfide 2-17, 4-23, 10-29), the Ki in assay [1] came to 600 nM; in assay [2], 4.3 nM.
For `CC[C@H](C)[C@@H]1NC(=O)[C@H](CCCCN)NC(=O)[C@@H]2CCCN2C(=O)[C@@H]2CSSC[C@@H]3NC(=O)CNC(=O)[C@H](C)NC(=O)[C@H](CC(C)C)NC(=O)[C@@H]4CSSC[C@H](NC(=O)[C@H](Cc5ccc(O)cc5)NC(=O)CNC(=O)[C@H](CC(N)=O)NC(=O)CNC(=O)[C@H](CCCNC(=N)N)NC(=O)[C@H](CSSC[C@H](NC(=O)[C@@H](CCCNC(=N)N)C(=O)[C@H](CCC(N)=O)NC(=O)[C@H](CC(C)C)NC1=O)C(=O)N[C@@H](CCCNC(=N)N)C(=O)N[C@@H](CCCNC(=N)N)C(=O)N[C@@H](CC(=O)O)C(=O)N[C@@H](CO)C(=O)N[C@@H](CC(=O)O)C(=O)N4)NC(=O)[C@H](CC(C)C)NC3=O)C(=O)NCC(=O)N[C@@H](CO)C(=O)NCC(=O)N[C@@H](C(C)C)C(=O)N2` (cyclo(AGCLCRGNGYCGSGVCPKIL[X2]CRRDSDCL); disulfide 3-16, 5-22, 11-28), in that order: 33 nM and 48 nM.
In the case of `CC[C@H](C)[C@@H]1NC(=O)[C@H](CCCNC(=N)N)NC(=O)[C@@H]2CCCN2C(=O)[C@@H]2CSSC[C@@H]3NC(=O)CNC(=O)[C@H](C)NC(=O)[C@H](CC(C)C)NC(=O)[C@@H]4CSSC[C@H](NC(=O)[C@H](Cc5ccc(O)cc5)NC(=O)CNC(=O)[C@H](CC(N)=O)NC(=O)CNC(=O)[C@H](CCCNC(=N)N)NC(=O)[C@H](CSSC[C@H](NC(=O)[C@@H](CCCNC(=N)N)C(=O)[C@H](CCC(N)=O)NC(=O)[C@H](CC(C)C)NC1=O)C(=O)N[C@@H](CCCNC(=N)N)C(=O)N[C@@H](CCCNC(=N)N)C(=O)N[C@@H](CC(=O)O)C(=O)N[C@@H](CO)C(=O)N[C@@H](CC(=O)O)C(=O)N4)NC(=O)[C@H](CC(C)C)NC3=O)C(=O)NCC(=O)N[C@@H](CO)C(=O)NCC(=O)N[C@@H](C(C)C)C(=O)N2` (cyclo(AGCLCRGNGYCGSGVCPRIL[X2]CRRDSDCL); disulfide 3-16, 5-22, 11-28), the Ki stood at 28 nM in assay [1] and 8.8 nM in assay [2].

Broadly, the Ki is a measure of affinity in units of concentration, obtained from inhibition or displacement.
